Organism: Rattus norvegicus
Test: Evaluated for the efficacy in stimulating cAMP synthesis by beta-1-adrenoceptor in rat cerebral cortex.
Type: functional

Row | Compound | Efficacy
1 | CC(=O)Oc1ccc(C(Cl)CNC(C)C)cc1OC(C)=O (configuration not stated) | 1
2 | CC(=O)Oc1ccc(C(O)CNC(C)C)cc1OC(C)=O (configuration not stated) [DIACETYLISOPROTERENOL] | 1
